Broadly, the IC50 is the concentration at which inhibition is half-maximal.

One assay concerns the target T1, ROCK1 (Homo sapiens, UniProt Q13464).
T1 construct: purchased Upstate/Chemicon 14-601
In words: Rho kinase inhibition assay (IMAP fluorescence polarization), ROCK1. In kind it is biochemical. The procedure: Following the pre-incubation, 10 μM ATP was added to initiate the reaction. After 60 minutes at room temperature, Molecular Devices IMAP™ binding solution was added to bind phosphorylated substrate. After 30 minutes of incubation in the presence of the IMAP™ beads, the fluorescence polarization was read and the ratio was reported as mP.

The target in a further assay is T2, ROCK2 (Homo sapiens, UniProt O75116).
T2 construct: purchased Upstate/Chemicon 14-451
Briefly: Rho kinase inhibition assay (IMAP fluorescence polarization), ROCK2. In kind it is biochemical. Conditions: 10 μM ATP, 60 min at room temperature. The procedure: (Molecular Devices product number R7184) was pre-incubated with a test compound for 5 minutes in buffer containing 10 mM Tris-HCl pH 7.2, 10 mM MgCl2, and 0.1% BSA. Following the pre-incubation, 10 μM ATP was added to initiate the reaction. After 60 minutes at room temperature, Molecular Devices IMAP™ binding solution was added to bind phosphorylated substrate. After 30 minutes of incubation in the presence of the IMAP™ beads, the fluorescence polarization was read and the ratio was reported as mP.
See Tian et al., Arch. Ophthalmol. […] Ophthalmol. Vis. […] Ophthalmol. […] Cytoskel. […] Ophthalmol. Vis. […] Ophthalmol. Vis.
A general note: Fluorescence polarisation rises when a labelled molecule tumbles more slowly, as on binding a larger partner.

The mark [1] stands for this setting: 10 μM ATP, 60 min at room temperature, read-out: ROCK1 IC50.

Like-named read-outs stand apart in the source and are kept apart here.

T2 sequence (O75116 whole entry): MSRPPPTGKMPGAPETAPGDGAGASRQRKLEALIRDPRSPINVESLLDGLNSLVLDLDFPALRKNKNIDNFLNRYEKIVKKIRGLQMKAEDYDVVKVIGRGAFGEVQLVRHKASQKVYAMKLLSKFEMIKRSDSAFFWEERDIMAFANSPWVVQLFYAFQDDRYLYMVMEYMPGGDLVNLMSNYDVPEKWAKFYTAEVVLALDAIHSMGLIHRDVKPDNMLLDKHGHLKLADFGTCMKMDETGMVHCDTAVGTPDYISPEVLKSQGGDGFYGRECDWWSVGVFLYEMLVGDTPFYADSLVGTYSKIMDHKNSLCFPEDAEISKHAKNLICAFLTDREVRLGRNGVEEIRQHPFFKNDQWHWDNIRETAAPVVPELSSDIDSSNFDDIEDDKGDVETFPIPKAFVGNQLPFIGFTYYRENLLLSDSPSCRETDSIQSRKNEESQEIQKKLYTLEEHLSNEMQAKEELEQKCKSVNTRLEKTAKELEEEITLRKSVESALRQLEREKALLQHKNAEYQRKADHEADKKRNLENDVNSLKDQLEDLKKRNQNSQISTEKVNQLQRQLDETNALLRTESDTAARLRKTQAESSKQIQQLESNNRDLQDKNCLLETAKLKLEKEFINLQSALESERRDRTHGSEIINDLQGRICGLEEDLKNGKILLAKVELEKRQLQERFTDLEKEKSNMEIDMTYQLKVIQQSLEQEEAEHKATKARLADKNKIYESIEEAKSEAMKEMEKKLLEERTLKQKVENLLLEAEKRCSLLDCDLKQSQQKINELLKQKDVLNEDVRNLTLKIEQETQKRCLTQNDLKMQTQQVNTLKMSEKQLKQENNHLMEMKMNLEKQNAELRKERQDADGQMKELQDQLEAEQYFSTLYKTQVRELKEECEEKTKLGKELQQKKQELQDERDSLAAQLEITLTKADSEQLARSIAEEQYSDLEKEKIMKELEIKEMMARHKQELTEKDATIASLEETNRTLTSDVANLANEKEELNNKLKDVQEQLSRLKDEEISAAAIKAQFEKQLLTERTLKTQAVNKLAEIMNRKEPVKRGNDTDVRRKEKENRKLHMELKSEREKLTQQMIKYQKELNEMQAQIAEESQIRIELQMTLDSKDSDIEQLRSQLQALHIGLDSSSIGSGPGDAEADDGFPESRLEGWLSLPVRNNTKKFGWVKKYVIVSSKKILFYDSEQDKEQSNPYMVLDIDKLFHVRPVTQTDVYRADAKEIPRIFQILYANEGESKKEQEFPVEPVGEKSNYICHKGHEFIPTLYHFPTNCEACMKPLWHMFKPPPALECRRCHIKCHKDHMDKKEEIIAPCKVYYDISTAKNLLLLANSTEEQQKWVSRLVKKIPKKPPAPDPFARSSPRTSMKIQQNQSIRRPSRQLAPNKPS
T1 sequence (Q13464 whole entry): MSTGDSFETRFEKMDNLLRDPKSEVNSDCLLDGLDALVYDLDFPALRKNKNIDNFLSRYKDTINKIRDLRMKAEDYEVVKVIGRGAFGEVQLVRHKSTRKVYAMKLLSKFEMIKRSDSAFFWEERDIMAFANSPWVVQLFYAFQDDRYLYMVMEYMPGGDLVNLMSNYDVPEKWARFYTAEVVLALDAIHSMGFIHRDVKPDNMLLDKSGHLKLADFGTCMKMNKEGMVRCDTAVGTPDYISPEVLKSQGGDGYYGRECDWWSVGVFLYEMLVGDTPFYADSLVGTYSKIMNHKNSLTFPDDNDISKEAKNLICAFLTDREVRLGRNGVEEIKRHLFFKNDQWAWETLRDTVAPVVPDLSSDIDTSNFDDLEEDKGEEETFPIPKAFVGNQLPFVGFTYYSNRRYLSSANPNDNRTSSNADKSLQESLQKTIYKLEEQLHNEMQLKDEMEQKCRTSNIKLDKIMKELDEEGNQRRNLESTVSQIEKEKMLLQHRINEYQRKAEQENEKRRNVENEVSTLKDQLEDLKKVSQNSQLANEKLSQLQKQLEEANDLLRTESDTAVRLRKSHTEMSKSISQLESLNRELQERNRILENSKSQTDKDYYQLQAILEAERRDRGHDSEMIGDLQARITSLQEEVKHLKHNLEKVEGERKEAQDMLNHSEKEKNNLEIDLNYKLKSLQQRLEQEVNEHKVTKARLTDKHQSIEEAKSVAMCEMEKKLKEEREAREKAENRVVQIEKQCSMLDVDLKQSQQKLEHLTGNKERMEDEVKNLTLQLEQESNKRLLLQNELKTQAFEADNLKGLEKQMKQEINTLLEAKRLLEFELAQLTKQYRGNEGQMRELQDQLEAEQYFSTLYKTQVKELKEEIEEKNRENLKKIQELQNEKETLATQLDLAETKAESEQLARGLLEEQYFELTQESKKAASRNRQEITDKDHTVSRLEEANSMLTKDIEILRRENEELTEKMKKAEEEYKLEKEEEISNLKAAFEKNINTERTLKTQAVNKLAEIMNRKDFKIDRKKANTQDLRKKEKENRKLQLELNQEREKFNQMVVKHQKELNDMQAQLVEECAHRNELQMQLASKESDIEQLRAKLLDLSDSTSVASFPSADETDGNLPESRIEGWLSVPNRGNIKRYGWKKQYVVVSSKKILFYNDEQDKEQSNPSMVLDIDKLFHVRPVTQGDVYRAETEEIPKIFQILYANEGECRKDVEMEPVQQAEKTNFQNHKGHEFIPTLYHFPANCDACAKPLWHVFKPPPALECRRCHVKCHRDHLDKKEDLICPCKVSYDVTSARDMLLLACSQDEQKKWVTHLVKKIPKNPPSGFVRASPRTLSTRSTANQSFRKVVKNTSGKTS

Consider `Cc1ccc(CN2CCC[C@@H](Nc3ccc4[nH]ncc4c3)C2)cc1OCCOC(=O)c1ccccc1` [Compound 26, 2-(5-(((R)-3-(1H-indazol-5-ylamino)piperidin-1-yl)methyl)-2-methylphenoxy)ethyl benzoate], for which the IC50 at ROCK1 (setting [1]) turned out to be 6.06 µM; at ROCK2, 0.621 µM. For the compound `O=C(OCCOc1cccc(CN2CCC[C@H](Nc3ccc4[nH]ncc4c3)C2)c1)c1ccccc1` [Compound 31, 2-(3-(((S)-3-(1H-indazol-5-ylamino)piperidin-1-yl)methyl)phenoxy)ethyl benzoate], the figures for the IC50 at ROCK1 and on ROCK2 were 5.65 µM and 1.23 µM, respectively.

Regarding `CCOC(=O)c1ccc(CN2CCC[C@H](Nc3ccc4[nH]ncc4c3)C2)cc1` [Compound 45, Ethyl 4-(((S)-3-(1H-indazol-5-ylamino)piperidin-1-yl)methyl)benzoate], the IC50 amounted to 45.5 µM on ROCK1 and 6.18 µM against ROCK2. Taken in the same sequence, the figures for `CCOC(=O)COc1cccc(CN2CCC[C@H](Nc3ccc4[nH]ncc4c3)C2)c1` [Compound 28] were 1.03 µM and 0.109 µM. Turning to `O=C(OCCOc1cccc(CN2CC[C@@H](Nc3cccc4cnccc34)C2)c1)c1cccnc1` [Compound 21, 2-(3-(((R)-3-(isoquinolin-5-ylamino)pyrrolidin-1-yl)methyl)phenoxy)ethyl nicotinate], the IC50 on ROCK1 (setting [1]) turned out to be 1.91 µM; on ROCK2, 0.512 µM. Taken in the same sequence, the figures for `CCOC(=O)OCCOc1cccc(CN2CC[C@@H](Nc3cccc4cnccc34)C2)c1` [Compound 17, 2-(3-(((R)-3-(isoquinolin-5-ylamino)pyrrolidin-1-yl)methyl)phenoxy)ethyl ethyl carbonate] were 1.22 µM and 0.369 µM. Turning to `O=C(COc1cccc(CN2CCC[C@@H](Nc3ccc4[nH]ncc4c3)C2)c1)Nc1cccnc1` [Compound 33, 2-(3-(((R)-3-(1H-indazol-5-ylamino)piperidin-1-yl)methyl)phenoxy)-N-(pyridin-3-yl)acetamide], the IC50 worked out at 1.01 µM against ROCK1 and 0.155 µM on ROCK2.

On to `CC(=O)NCCOc1cccc(CN2CCC[C@H](Nc3ccc4[nH]ncc4c3)C2)c1` [Compound 30, N-(2-(3-(((S)-3-(1H-indazol-5-ylamino)piperidin-1-yl)methyl)phenoxy)ethyl) acetamide], for which the IC50 on ROCK1 came to 5.39 µM; on ROCK2 it was 0.451 µM. On ROCK2, `CC(=O)Nc1ccc(CN2CCC(Nc3cccc4cnccc34)C2)cc1` (centres unmarked) [Compound 25, N-(4-((3-(isoquinolin-5-ylamino)pyrrolidin-1-yl)methyl)phenyl)acetamide] had an IC50 of 2.3 µM. Regarding `CC(=O)NCCOc1cccc(CN2CCC[C@@H](Nc3ccc4[nH]ncc4c3)C2)c1` [Compound 29, N-(2-(3-(((R)-3-(1H-indazol-5-ylamino)piperidin-1-yl)methyl)phenoxy)ethyl) acetamide], the IC50 against ROCK1 was determined as 5.16 µM; at ROCK2 it was 0.987 µM. The matching figures for `OCCOc1cccc(CN2CC[C@@H](Nc3cccc4cnccc34)C2)c1` [Compound 48, 2-(3-(((R)-3-(isoquinolin-5-ylamino)pyrrolidin-1-yl)methyl)phenoxy)ethanol]: 0.019 µM and 0.0067 µM. In the case of `CC(C)(C)OC(=O)COc1cccc(CN2CCC[C@H](Nc3ccc4[nH]ncc4c3)C2)c1` [Compound 27, tert-Butyl 2-(3-(((S)-3-(1H-indazol-5-ylamino)piperidin-1-yl)methyl)phenoxy) acetate], the IC50 against ROCK1 came out at 3.44 µM; against ROCK2 it was 0.251 µM.

Consider `CC(C)CC(=O)OCCOc1cccc(CN2CC[C@@H](Nc3cccc4cnccc34)C2)c1` [Compound 18, 2-(3-((((R)-3-(isoquinolin-5-ylamino)pyrrolidin-1-yl)methyl)phenoxy)ethyl 3-methylbutanoate)], for which the IC50 on ROCK1 (setting [1]) turned out to be 3.82 µM; against ROCK2, 1.49 µM. For `CCOC(=O)c1ccc(CN2CCC[C@@H](Nc3ccc4[nH]ncc4c3)C2)cc1` [Compound 44, Ethyl 4-(((R)-3-(1H-indazol-5-ylamino)piperidin-1-yl)methyl)benzoate], the values for the IC50 against ROCK1 and against ROCK2 were 117 µM and 6.19 µM, respectively.

In the case of `CC(C)(C)C(=O)OCCOc1cccc(CN2CC[C@@H](Nc3cccc4cnccc34)C2)c1` [Compound 20, 2-(3-(((R)-3-(isoquinolin-5-ylamino)pyrrolidin-1-yl)methyl)phenoxy)ethyl pivalate], the IC50 on ROCK1 (setting [1]) was determined as 4.81 µM; on ROCK2, 1.77 µM. For the compound `CC1(C(=O)OCCOc2cccc(CN3CC[C@@H](Nc4cccc5cnccc45)C3)c2)CC1` [Compound 19, 2-(3-(((R)-3-(isoquinolin-5-ylamino)pyrrolidin-1-yl)methyl)phenoxy)ethyl 1-methylcyclopropanecarboxylate], the IC50 on ROCK1 (setting [1]) was found to be 3.06 µM; against ROCK2, 1.05 µM.

For “tert-Butyl (4-(((S)-3-(1H-indazol-5-ylamino)piperidin-1-yl)methyl)phenyl) methylcarbamate [Compound 43]”, the IC50 at ROCK1 (setting [1]) was 25.4 µM; on ROCK2, 4 µM. `O=C(COc1cccc(CN2CCC[C@@H](Nc3ccc4[nH]ncc4c3)C2)c1)N1CCOCC1` [Compound 34, 2-(3-(((R)-3-(1H-indazol-5-ylamino)piperidin-1-yl)methyl)phenoxy)-1-morpholinoethanone]: the IC50 against ROCK1 is 1.28 µM; at ROCK2, 0.102 µM. On to `CCOC(=O)COc1cccc(CN2CCCC(Nc3ccc4[nH]ncc4c3)C2)c1` (centres unmarked) [Compound 41, Ethyl 2-(3-((3-(1H-indazol-5-ylamino)piperidin-1-yl)methyl)phenoxy)acetate], for which, on ROCK2, it took 0.087 µM to reach half-maximal inhibition (IC50). With `O=C(OCCOc1cccc(CN2CCC[C@@H](Nc3ccc4[nH]ncc4c3)C2)c1)c1ccccc1` [Compound 32, 2-(3-((R)-3-(1H-indazol-5-ylamino)piperidin-1-yl)methyl)phenoxy)ethyl benzoate], the IC50 turned out to be 7.08 µM against ROCK1 and 3.02 µM on ROCK2. For `CC(=O)NCc1cccc(CN2CCC[C@@H](Nc3ccc4[nH]ncc4c3)C2)c1` [Compound 42, N-((3-(((R)-3-(1H-indazol-5-ylamino)piperidin-1-yl)methyl)phenyl)methyl) acetamide], the IC50 was determined as 2.42 µM on ROCK1 and 0.341 µM at ROCK2.

On ROCK2, “tent-Butyl (3-((3-(1H-indazol-5-ylamino)piperidin-1-yl)methyl)phenyl)methyl carbamate [Compound 40]” showed an IC50 of 6.59 µM.

The values are drawn from patent US20130131059A1, “METHOD FOR TREATING OPHTHALMIC DISEASES USING KINASE INHIBITOR COMPOUNDS IN PRODRUG FORMS” (INSPIRE PHARMACEUTICALS, INC., priority 2010, published 2013).
